Test results reported in patent US20100094407A1, “Multiple Bioactive Agent Eluting Stents” (Medtronic Vascular, Inc., priority 2008, published 2010).

Test: Elution of fluocinolone and zotarolimus from coated stents, Example 1
Type: physicochemical
Details: 60 μg zotarolimus with or without 80 μg fluocinolone; FIG. 4
Description: In one embodiment, the present disclosure relates to a multiple bioactive agent eluting stent comprising a stent framework, at least two bioactive agents on the stent framework, wherein one or more of the at least two bioactive agents affects the elution rate of one or more of the other of the at least two bioactive agents. The elution rate or profile of the bioactive agents can be determined utilizing the methods showing in Examples 1 and 2 below. For example, total cumulative release of applied bioactive agents can be measured to determine total daily release and also release over a period of time greater than one day. The at least two bioactive agents may be applied together onto a stent framework. There may be one coating which contains all of the bioactive agents. Alternatively, the bioactive agents can be applied to the stent framework in separate coatings. Each coating may contain just one bioactive agent or more than one bioactive agent. The coatings may constitute separate layers. There can also be a base layer and cap layer on the stent framework. Base layer is located closest to the stent framework and the cap layer is a layer which is located furthest away from the stent framework. The layers can be uniform or non-uniform, meaning the layers can be in the form of, for example, dots or stripes or other non-uniform patterns.
12 mm parylene coated stents were used for all builds. […]

- zotarolimus elution rate / total cumulative release, combination with fluocinolone vs zotarolimus alone: increased
SMILES: CO[C@H]1C[C@@H]2CC[C@@H](C)[C@@](O)(O2)C(=O)C(=O)N2CCCC[C@H]2C(=O)O[C@H]([C@H](C)C[C@@H]2CC[C@H](n3cnnn3)[C@H](OC)C2)CC(=O)[C@H](C)/C=C(\C)[C@@H](O)[C@@H](OC)C(=O)[C@H](C)C[C@H](C)/C=C/C=C/C=C/1C [zotarolimus]
